Laboratory results as given in patent US10398781B2, “Conjugate based systems for controlled drug delivery” (SmartCells, Inc., priority 2009, dated 2019).

Tests used:
[1] = tested on: blood glucose; test: Glucose lowering after i.v. injection in minipigs with and without a-MM infusion; assay type: in vivo, non-diabetic male Yucatan minipigs; conditions: 0.1 U/kg i.v.; for overall bioactivity (glucose lowering): minipigs
[2] = tested on: blood glucose; test: Blood glucose depression profile after subcutaneous injection; assay type: in vivo, fasted normal non-diabetic rats (Male Sprague-Dawley); conditions: sub-Q
[3] = Sugar-dependent i.v. elimination half-life in minipigs; assay type: in vivo, non-diabetic, male miniature swine (Yucatan strain); conditions: pigs, 0.1 U/kg i.v.
[4] = tested on: blood glucose; test: Sub-Q injection in non-diabetic and alloxan-diabetic minipigs; assay type: in vivo, Yucatan minipigs
[5] = tested on: serum insulin and blood glucose levels; test: Effect of IP exogenous saccharide 15 minutes after sub-Q conjugate on PK/PD profile; assay type: in vivo, fasted normal non-diabetic rats (Male Sprague-Dawley)
[6] = tested on: serum insulin and blood glucose levels; test: Effect of a-MM co-injected at the local sub-Q injection site; assay type: in vivo, non-diabetic, male SD rats; conditions: 5 U/kg sub-Q
Protocol: In view of the data described in Example 42, we set out to determine whether the alpha-methyl mannose (a-MM) induced increase in serum conjugate concentration and bioactivity was a result of an increased rate of absorption from the subcutaneous injection site. The high affinity TSAT-C6-AETM-2 conjugate I-2 was used for this experiment. First, the conjugate was diluted to a concentration of 5 U/ml (0.2 mg/ml insulin equivalent) using either a buffered saline solution or a buffered saline solution containing 1 M a-MM. Each solution was injected sub-Q at a dose of 5 U/kg into the back of the neck of each of three non-diabetic, male SD rats at time 0 and blood samples were collected via tail vein bleeding at 0 minutes and at 15, 30, 45, 60, 90, 120, 150, 180, 240, and 300 minutes after injection. […] In this experiment, rats that received the a-MM conjugate solution also received an injection of buffered saline solution sub-Q at a separate hind quarter injection site at 15 minutes. Rats that received the saline conjugate solution also received an injection of a-MM solution sub-Q at a separate hind quarter injection site at 15 minutes.

[7] = Accelerated stability testing (AST) aggregation assay; assay type: physicochemical; conditions: PBS buffer
[8] = 0.25 ml of 20 U equivalent insulin/ml
[9] = sub-Q, II-2 0.25, 0.50, 1.00 U/kg, RHI 0.063 and 0.125 U/kg

With “I-12: human insulin conjugated at A1 to TSAT-C6 framework with two AETM ligands” the “overall bioactivity (glucose lowering)” value [1] was “slightly more effective in lowering glucose than conjugate I-6”.

In the case of “insulin-glycogen: comparative insulin-oyster glycogen (Type II) conjugate per U.S. Patent Application Publication No. 20070099820”, the “glucose depression profile / glucose lowering response” value ([2]; 2.5-5 U/kg) is reported as “lower glucose levels much more rapidly and to a greater extent”.

For “insulin-dextran: comparative insulin-dextran (MW~70K) conjugate made by CNBr coupling per U.S. Patent Publication No. 20040202719”, the “duration of serum glucose depression post injection” value [2, 8] was “at least five hours” and the “time to reach the glucose nadir (Tnadir)” value [2, 8] was “about 3 hours”.

For “II-2: A1,B29-disubstituted insulin, TSAT-C6 frameworks, four AETM ligands”, the “increase in t1/2 in the presence of a-MM” value [3] was about 10 fold, the “duration of hypoglycemia-free glucose control in diabetic minipigs” value ([4]; single injection of approximately 0.5 U/kg) was 6 to 8 h and the “blood glucose in alloxan-diabetic, hyperglycemic minipigs” value [4, 9] was “significant dose-dependent reduction in blood glucose levels”. The “hypoglycemia / glucose-lowering in non-diabetic minipigs” value [4, 9] was “absolutely no hypoglycemia or signs of glucose-lowering”, the “area over the glucose lowering curve in the presence of a-MM vs. absence of sugar” value [1] was “approximately 2.6 ×” and the a-MM induced bioactivity ([1]; a-MM infusion 25% w/v 80 ml/h) was “increased the a-MM induced bioactivity”. The “overall bioactivity (glucose lowering)” value [1] was “reduced overall bioactivity”.

With “I-2: human insulin conjugated at B1 to TSAT-C6 framework with two AETM ligands” the “effect of IP L-fucose on serum insulin profile” value ([5]; L-fucose IP 15 minutes after sub-Q injection) was “alpha-methyl mannose and L-fucose appear to exhibit the same kind of effect”, the “change in PK/PD profile from IP injection of alpha-methyl mannose vs. saline” value ([5]; a-MM IP 15 minutes after sub-Q injection) was “very significant (p<0.05)” and the “effect of IP galactose on serum insulin profile” value ([5]; galactose IP 15 minutes after sub-Q injection) was “no effect as compared to saline”. The “effect of IP glucose on serum insulin profile” value ([5]; glucose IP 15 minutes after sub-Q injection) was “small effect” and the “serum insulin and blood glucose with 1M a-MM co-injected vs. buffered saline” value [6] was “the serum insulin levels do not increase and the blood glucose levels do not decrease”.

In the case of “I-16: human insulin conjugated at B1 to TSPE framework with three AEM ligands”, the “AST aggregation stability compared with RHI” value [7] is reported as “greatly enhanced stability over pharmaceutical grade RHI”.
